Key:
Cannabinoid receptor 1 = Cannabinoid receptor 1 (Homo sapiens, UniProt P21554); assay type: functional, cell-based
Histamine H1 receptor = Histamine H1 receptor (Homo sapiens, UniProt P35367)
Estrogen receptor = biological target: T1, Estrogen receptor (Homo sapiens, UniProt P03372)
T1 sequence (P03372 whole entry): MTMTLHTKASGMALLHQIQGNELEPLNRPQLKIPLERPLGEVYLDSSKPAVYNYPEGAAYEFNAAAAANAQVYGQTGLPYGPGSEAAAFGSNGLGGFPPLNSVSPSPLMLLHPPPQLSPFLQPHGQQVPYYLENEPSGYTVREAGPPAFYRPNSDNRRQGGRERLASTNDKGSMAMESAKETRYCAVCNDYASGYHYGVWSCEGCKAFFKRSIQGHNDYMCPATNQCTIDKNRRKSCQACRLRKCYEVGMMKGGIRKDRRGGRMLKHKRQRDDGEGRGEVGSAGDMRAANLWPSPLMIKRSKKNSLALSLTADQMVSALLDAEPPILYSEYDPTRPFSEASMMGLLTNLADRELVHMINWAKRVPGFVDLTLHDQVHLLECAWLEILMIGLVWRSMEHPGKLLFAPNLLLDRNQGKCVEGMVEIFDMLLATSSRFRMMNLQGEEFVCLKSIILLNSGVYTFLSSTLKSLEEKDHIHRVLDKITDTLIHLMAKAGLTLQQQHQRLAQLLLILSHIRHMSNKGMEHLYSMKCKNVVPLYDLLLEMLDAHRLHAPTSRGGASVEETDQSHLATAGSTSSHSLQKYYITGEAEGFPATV

[1] = biological target: Kappa-type opioid receptor (Homo sapiens, UniProt P41145)
[2] = biological target: T2, 5-hydroxytryptamine receptor 2C (Homo sapiens, UniProt P28335)
T2 sequence (P28335 whole entry): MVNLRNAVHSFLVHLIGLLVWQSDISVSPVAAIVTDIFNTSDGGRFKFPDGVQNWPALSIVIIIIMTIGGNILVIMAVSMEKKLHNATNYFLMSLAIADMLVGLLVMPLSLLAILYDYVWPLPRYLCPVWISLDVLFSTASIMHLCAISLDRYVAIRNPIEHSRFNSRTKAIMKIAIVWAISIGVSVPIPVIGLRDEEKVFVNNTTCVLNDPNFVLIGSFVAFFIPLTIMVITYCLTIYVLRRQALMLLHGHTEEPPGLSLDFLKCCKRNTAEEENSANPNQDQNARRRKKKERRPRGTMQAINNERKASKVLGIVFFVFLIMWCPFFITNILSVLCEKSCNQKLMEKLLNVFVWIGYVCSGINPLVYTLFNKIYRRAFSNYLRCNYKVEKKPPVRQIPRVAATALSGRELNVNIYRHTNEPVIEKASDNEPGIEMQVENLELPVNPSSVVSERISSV

[3] = biological target: Neuronal acetylcholine receptor subunit alpha-4 (Homo sapiens, UniProt P43681)
Progesterone receptor = biological target: T3, Progesterone receptor (Homo sapiens, UniProt P06401); assay type: functional
T3 sequence (P06401 whole entry): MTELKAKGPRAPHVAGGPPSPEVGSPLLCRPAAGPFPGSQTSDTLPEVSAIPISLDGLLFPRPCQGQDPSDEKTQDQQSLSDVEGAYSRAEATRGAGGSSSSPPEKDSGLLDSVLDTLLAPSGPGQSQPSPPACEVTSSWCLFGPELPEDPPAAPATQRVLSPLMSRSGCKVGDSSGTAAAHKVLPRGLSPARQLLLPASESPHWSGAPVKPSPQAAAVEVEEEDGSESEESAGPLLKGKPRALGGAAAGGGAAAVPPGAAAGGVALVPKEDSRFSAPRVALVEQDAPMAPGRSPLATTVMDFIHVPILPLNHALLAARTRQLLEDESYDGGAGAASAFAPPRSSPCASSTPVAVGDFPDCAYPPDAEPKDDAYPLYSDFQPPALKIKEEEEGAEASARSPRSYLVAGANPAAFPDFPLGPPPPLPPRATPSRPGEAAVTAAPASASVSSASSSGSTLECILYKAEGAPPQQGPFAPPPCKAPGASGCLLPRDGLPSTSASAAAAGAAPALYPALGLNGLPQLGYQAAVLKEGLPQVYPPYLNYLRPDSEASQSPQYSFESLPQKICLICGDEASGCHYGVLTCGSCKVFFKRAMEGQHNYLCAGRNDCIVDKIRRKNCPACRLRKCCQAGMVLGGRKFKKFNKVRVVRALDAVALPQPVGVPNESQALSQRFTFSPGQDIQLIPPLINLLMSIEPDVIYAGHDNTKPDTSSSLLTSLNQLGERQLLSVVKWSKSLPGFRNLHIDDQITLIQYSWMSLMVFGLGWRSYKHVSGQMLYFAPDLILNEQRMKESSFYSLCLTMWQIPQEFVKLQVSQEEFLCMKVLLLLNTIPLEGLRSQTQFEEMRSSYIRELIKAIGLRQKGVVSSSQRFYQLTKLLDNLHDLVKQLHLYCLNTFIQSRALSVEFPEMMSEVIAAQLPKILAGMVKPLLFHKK

Motilin receptor = Motilin receptor (Homo sapiens, UniProt O43193)
[4] = biological target: 5-hydroxytryptamine receptor 2B (Homo sapiens, UniProt P41595); assay type: functional, cell-based
[5] = biological target: T4, Alpha-2B adrenergic receptor (Homo sapiens, UniProt P18089)
T4 sequence (P18089 whole entry): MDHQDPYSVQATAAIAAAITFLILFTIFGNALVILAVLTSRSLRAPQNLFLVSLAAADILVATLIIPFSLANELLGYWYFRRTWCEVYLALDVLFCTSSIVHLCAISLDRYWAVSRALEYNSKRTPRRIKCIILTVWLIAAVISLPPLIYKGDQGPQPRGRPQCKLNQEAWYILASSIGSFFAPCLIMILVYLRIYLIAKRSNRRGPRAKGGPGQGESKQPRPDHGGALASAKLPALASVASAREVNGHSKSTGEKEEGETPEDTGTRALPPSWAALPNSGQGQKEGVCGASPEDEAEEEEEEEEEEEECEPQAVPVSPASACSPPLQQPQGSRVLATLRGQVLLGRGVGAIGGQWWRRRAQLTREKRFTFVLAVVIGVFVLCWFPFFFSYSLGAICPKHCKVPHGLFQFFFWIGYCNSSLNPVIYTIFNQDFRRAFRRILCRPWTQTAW

Melanocortin receptor 3 = Melanocortin receptor 3 (Homo sapiens, UniProt P41968)
Also: assay procedure not described here.

Chain of Neuronal acetylcholine receptor subunit alpha-4 (P43681 whole entry): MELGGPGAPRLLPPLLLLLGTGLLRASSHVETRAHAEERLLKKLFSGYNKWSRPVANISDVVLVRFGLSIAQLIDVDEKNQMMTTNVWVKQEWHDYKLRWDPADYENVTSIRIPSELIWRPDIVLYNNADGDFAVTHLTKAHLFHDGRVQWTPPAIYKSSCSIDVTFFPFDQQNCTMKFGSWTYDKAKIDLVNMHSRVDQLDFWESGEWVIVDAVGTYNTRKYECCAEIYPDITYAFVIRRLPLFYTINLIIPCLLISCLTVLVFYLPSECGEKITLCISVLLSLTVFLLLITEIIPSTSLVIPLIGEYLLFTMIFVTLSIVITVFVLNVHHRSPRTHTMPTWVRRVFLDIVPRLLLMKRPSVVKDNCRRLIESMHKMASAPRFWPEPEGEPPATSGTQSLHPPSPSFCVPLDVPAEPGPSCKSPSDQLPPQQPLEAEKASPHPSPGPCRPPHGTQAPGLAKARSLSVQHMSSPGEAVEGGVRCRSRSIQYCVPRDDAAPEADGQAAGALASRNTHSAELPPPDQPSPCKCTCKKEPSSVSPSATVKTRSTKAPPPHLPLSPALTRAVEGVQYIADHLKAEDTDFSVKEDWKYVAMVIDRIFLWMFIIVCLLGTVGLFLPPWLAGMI
Chain of Motilin receptor (O43193 whole entry): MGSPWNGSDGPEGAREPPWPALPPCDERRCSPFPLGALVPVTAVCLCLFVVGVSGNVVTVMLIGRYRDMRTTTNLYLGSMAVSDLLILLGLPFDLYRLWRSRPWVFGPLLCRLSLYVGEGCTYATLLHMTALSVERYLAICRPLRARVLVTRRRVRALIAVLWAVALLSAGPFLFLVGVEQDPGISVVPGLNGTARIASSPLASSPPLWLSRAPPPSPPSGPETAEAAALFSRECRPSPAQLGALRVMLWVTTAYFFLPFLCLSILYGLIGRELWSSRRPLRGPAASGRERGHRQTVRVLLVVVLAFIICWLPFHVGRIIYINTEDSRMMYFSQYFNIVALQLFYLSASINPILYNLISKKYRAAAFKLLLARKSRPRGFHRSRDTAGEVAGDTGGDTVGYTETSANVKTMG
Chain of Kappa-type opioid receptor (P41145 whole entry): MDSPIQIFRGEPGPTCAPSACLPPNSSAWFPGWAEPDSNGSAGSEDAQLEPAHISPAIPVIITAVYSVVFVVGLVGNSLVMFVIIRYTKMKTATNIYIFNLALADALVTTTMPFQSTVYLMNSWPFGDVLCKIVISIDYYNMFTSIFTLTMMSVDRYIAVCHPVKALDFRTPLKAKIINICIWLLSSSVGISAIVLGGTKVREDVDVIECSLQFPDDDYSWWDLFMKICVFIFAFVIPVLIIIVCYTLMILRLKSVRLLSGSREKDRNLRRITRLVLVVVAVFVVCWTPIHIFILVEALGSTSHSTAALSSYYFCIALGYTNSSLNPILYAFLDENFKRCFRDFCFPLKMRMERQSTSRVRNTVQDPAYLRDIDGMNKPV
Chain of Cannabinoid receptor 1 (P21554 whole entry): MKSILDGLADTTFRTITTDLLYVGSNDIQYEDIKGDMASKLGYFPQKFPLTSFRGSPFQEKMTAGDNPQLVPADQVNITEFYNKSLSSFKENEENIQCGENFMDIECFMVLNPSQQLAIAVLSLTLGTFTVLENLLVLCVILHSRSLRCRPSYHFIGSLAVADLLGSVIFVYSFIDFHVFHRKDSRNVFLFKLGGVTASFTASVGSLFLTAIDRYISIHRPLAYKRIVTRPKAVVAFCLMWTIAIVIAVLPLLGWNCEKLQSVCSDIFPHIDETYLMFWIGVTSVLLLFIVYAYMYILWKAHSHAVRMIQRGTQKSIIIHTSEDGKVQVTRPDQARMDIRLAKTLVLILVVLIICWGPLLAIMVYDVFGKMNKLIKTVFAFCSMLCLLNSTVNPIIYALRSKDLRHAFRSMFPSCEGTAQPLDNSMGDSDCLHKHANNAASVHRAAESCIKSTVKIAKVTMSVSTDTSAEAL
Chain of Histamine H1 receptor (P35367 whole entry): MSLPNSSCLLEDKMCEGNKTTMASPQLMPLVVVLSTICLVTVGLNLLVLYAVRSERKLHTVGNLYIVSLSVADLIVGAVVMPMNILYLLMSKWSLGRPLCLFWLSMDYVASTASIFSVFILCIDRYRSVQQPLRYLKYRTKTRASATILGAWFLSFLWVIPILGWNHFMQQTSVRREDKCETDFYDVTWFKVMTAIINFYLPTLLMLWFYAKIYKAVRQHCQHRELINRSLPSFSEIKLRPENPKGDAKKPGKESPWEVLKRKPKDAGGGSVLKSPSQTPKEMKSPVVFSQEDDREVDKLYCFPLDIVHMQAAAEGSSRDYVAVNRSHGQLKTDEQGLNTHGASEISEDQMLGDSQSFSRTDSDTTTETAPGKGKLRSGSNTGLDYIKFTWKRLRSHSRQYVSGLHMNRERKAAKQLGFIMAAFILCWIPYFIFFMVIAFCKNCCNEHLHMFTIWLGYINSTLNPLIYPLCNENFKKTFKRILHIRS
Chain of 5-hydroxytryptamine receptor 2B (P41595 whole entry): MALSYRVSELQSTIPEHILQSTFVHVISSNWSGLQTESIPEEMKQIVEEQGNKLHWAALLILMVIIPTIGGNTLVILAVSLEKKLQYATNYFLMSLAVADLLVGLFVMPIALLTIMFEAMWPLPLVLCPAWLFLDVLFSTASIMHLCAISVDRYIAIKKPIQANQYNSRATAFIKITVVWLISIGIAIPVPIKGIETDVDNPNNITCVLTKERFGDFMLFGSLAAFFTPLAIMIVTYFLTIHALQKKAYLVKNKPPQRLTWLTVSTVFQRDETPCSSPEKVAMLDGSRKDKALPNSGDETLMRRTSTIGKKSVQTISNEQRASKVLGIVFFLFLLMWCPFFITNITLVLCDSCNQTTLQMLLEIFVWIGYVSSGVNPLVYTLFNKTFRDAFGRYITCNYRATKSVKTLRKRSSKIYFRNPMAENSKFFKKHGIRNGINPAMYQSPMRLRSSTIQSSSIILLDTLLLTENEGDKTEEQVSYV
Chain of Melanocortin receptor 3 (P41968 whole entry): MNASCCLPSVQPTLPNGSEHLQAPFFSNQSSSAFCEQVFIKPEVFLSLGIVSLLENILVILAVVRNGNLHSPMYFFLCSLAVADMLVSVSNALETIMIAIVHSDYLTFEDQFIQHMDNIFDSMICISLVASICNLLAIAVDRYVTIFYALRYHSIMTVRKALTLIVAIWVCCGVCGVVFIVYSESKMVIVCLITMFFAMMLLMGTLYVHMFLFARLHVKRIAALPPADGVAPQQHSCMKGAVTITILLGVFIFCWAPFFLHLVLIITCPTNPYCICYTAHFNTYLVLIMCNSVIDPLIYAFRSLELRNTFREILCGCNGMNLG

SMILES	AC50 (Cannabinoid receptor 1)	AC50 (Histamine H1 receptor)	AC50 (Estrogen receptor)	AC50 [1]	AC50 [2]	AC50 [3]	AC50 (Progesterone receptor)	AC50 (Motilin receptor)	AC50 [4]	AC50 [5]	AC50 (Melanocortin receptor 3)
N#Cc1ccccc1-c1cc(-c2ccccn2)cn(-c2ccccc2)c1=O	> 30 µM	> 30 µM	> 30 µM	> 30 µM	> 30 µM	> 30 µM	> 30 µM	> 30 µM	> 30 µM	> 30 µM	> 30 µM
N=C(N)NCCCCCCC(=O)NC(O)C(=O)NCCCCNCCCN (centres undefined)	> 30 µM	> 30 µM	> 30 µM	> 30 µM	> 30 µM	> 30 µM	> 30 µM	> 30 µM	> 30 µM	> 30 µM	> 30 µM
CC(=O)OCC(=O)[C@@]1(O)CC[C@H]2[C@@H]3CCC4=CC(=O)CC[C@]4(C)C3=CC[C@@]21C [ANECORTAVE ACETATE]	> 30 µM	> 10 µM	> 30 µM	> 10 µM	> 30 µM	> 10 µM	> 30 µM	> 10 µM	> 10 µM	> 10 µM	> 10 µM
O=C(CCCN1CCC(n2c(O)nc3ccccc32)CC1)c1ccc(F)cc1 [BENPERIDOL]	> 30 µM	0.73 µM	> 30 µM	1.15 µM	13 µM	> 30 µM	29 µM	26 µM	6.59 µM	0.85 µM	> 30 µM
COC(=O)N[C@@H](C)CNc1nccc(-c2cn(C(C)C)nc2-c2cc(Cl)cc(NS(C)(=O)=O)c2F)n1 [ENCORAFENIB]	–	> 30 µM	> 30 µM	13.7 µM	> 30 µM	> 30 µM	> 30 µM	> 30 µM	28 µM	> 30 µM	> 30 µM
Clc1ccc2c(c1)C(c1ccccc1)=NCc1nncn1-2 [ESTAZOLAM]	> 30 µM	> 10 µM	> 30 µM	20.1 µM	> 30 µM	> 10 µM	–	> 10 µM	> 10 µM	> 10 µM	> 30 µM
Nc1nc(F)nc2c1ncn2[C@@H]1O[C@H](COP(=O)(O)O)[C@@H](O)[C@@H]1O [FLUDARABINE PHOSPHATE]	–	> 30 µM	> 30 µM	> 30 µM	> 30 µM	> 30 µM	> 30 µM	> 30 µM	> 30 µM	> 30 µM	> 30 µM
O=C(O)c1ccccc1Nc1cccc(C(F)(F)F)c1 [FLUFENAMIC ACID]	> 30 µM	0.082 µM	> 30 µM	> 30 µM	4.6 µM	> 10 µM	–	> 10 µM	> 30 µM	> 10 µM	> 30 µM
C#C[C@]1(O)CC[C@H]2[C@@H]3CCC4=CC(=O)CCC4=C3C=C[C@@]21CC [GESTRINONE]	> 30 µM	> 30 µM	6.1 µM	23 µM	> 30 µM	> 30 µM	–	> 30 µM	24 µM	> 30 µM	> 30 µM
O=C1CN=C(c2ccccc2)c2cc(Cl)ccc2N1 [NORDAZEPAM]	> 30 µM	> 10 µM	> 30 µM	9.97 µM	> 30 µM	> 10 µM	–	> 10 µM	> 10 µM	> 10 µM	> 30 µM
CC(CCc1ccccc1)NC(C)C(O)c1ccc(O)cc1 (centres undefined) [NYLIDRIN]	> 30 µM	> 10 µM	> 30 µM	4.98 µM	> 30 µM	> 10 µM	–	> 10 µM	6.9 µM	0.73 µM	> 30 µM
CC(=O)O[C@H]1C[C@@H]2CC[C@@H]3[C@H](CC[C@@]4(C)[C@H]3C[C@H]([N+]3(C)CCCCC3)[C@@H]4OC(C)=O)[C@@]2(C)C[C@@H]1[N+]1(C)CCCCC1 [PANCURONIUM]	–	> 10 µM	> 10 µM	> 10 µM	> 30 µM	> 10 µM	> 10 µM	> 10 µM	> 10 µM	> 10 µM	> 10 µM
CC1(C)C(C=C(Cl)Cl)C1C(=O)OCc1cccc(Oc2ccccc2)c1 (centres undefined) [PERMETHRIN]	–	> 10 µM	> 30 µM	> 10 µM	> 30 µM	> 10 µM	> 30 µM	> 10 µM	> 10 µM	> 10 µM	> 10 µM
CC(=O)c1ccc2c(c1)N(CCCN1CCC(CCO)CC1)c1ccccc1S2 [PIPERACETAZINE]	> 30 µM	0.034 µM	> 30 µM	4 µM	11 µM	> 30 µM	–	> 30 µM	4.7 µM	0.068 µM	> 30 µM
Cc1ccc2c(-c3ccccc3)nc(=O)n(C(C)C)c2c1 [PROQUAZONE]	> 30 µM	> 30 µM	> 30 µM	> 30 µM	> 30 µM	> 30 µM	> 30 µM	> 30 µM	–	> 30 µM	> 30 µM
CC(NCCc1ccc(O)cc1)C(O)c1ccc(O)cc1 (centres undefined) [RITODRINE]	–	> 30 µM	> 30 µM	14.4 µM	> 30 µM	> 30 µM	> 30 µM	> 30 µM	> 30 µM	> 30 µM	> 30 µM

Reference: ChEMBL document CHEMBL5291721, “A preclinical secondary pharmacology resource illuminates target-adverse drug reaction associations of marketed drugs” (Nat Commun, 2023)
